Data published in patent publication US20240261417A1, “SOS1 DEGRADING AGENT AND PREPARATION METHOD THEREFOR AND APPLICATION THEREOF” (SHANGHAI LEADINGTAC PHARMACEUTICAL CO. LTD., priority 2021, published 2024).

What was measured:
KRAS-G12C/SOS1 = biological target: T1, KRAS-G12C/SOS1 (Homo sapiens, UniProt Q07889); assay: KRAS-G12C/SOS1 binding assay (HTRF); conditions: inhibition of KRAS-G12C/SOS1 binding
T1 construct: purchased Cisbio 63ADKOOOCB16PEG
T1 sequence (Q07889 1-1333): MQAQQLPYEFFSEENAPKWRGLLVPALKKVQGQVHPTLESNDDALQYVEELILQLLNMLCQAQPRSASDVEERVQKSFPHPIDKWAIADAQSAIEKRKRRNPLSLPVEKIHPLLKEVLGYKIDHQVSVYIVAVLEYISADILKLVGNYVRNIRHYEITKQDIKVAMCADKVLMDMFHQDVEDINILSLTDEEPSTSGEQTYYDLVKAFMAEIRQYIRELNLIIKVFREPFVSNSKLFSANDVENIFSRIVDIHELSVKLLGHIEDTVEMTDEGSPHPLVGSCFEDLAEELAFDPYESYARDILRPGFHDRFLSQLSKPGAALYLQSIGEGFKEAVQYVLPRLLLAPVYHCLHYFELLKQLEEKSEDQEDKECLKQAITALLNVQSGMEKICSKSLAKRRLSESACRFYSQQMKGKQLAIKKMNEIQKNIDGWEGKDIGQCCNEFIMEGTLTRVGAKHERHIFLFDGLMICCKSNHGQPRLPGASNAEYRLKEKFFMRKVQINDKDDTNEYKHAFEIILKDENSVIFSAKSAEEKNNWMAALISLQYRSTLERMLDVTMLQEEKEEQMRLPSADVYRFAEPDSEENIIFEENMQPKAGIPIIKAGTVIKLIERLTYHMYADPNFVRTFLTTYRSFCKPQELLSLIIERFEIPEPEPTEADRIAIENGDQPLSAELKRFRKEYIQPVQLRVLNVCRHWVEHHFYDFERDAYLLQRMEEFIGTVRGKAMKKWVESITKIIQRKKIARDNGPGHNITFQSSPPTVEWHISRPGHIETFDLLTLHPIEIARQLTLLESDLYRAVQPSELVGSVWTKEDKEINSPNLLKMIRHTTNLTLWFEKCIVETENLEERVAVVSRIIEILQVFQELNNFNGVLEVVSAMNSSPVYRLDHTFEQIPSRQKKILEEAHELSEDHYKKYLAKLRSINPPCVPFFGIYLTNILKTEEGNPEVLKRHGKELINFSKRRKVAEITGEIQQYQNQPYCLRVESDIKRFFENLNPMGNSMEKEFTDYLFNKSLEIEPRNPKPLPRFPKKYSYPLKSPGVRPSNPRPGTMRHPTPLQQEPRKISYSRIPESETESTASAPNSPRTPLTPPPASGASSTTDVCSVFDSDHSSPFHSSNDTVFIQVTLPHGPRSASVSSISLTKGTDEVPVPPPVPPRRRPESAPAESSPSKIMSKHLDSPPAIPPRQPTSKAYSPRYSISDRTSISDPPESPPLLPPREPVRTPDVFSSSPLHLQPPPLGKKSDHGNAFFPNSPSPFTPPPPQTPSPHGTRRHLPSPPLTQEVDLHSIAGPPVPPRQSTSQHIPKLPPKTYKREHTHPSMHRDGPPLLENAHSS
Procedure: The following method was used to determine the extent of inhibition of KRAS-G12C/SOS1 binding by the preferred compounds of the present invention under in vitro conditions. In this method, the competitive inhibition of KRAS-G12C/SOS1 binding by the preferred compounds was assayed by the homogeneous time-resolved fluorescence (HTRF) technology using the KRAS-G12C/SOS1 binding assay kit (Cisbio, 63ADKOOOCB16PEG).
The experimental procedures were as follows (refer to the kit instructions for details): the compounds of the present invention were each firstly dissolved in DMSO at a concentration of 20 mM, and then diluted in an equal gradient with a buffer in the kit, so that the final concentrations of the test compounds in the reaction system were in a range of 10000 nM-0.04 nM, and the final concentration of DMSO was 0.5%. 2 μL of the compounds were each incubated with 4 μL of 1×Tag1-SOS1, 4 μL of 1×Tag2-KRAS-G12C (containing 10 μM guanosine triphosphate, GTP) at 25° C. for 15 min. Then 5 μL of 1× Anti-Tag1-Tb3+ and 5 μL of 1× Anti-Tag2-XL665 were added to the reaction system, and the mixture was incubated on ice for 3 h. After the incubation, the fluorescence intensity of each well was measured at the excitation wavelength of 337 nm, the fluorescence intensity of each well was read at the emission wavelengths of 620 nm and 665 nm on a microplate reader EnVision (PerkinElmer, 2105) in an HTRF mode, and the Ratio value was calculated by the formula Ratio=(665 nm/620 nm)×[…]. The inhibition rates of the compounds at each concentration were calculated by comparing the fluorescence intensity ratio with that of the control group, and then nonlinear curve fitting was performed by GraphPad Prism 8 in the logarithmic concentration-inhibition rate to obtain the IC50 values of the compounds, as shown in Table 1.

SOS1 protein = biological target: T2, SOS1 protein (Homo sapiens, UniProt Q07889); assay: SOS1 degradation assay (Western blot), NCI-H358 cells; format: cell-based; set-up: The degradation of SOS1 by the compounds was investigated on KRAS G12C mutant human non-small cell lung cancer cells NCI-H358; host or cells: NCI-H358 (human cancer cell lines); conditions: SOS1 degradation, NCI-H358 cells, 24 h, Western blot; for DC50: read-out: NCI-H358 (G12C) DC50; for Dmax: read-out: NCI-H358 (G12C) Dmax
T2 sequence (Q07889 1-1333): T1 sequence (Q07889 1-1333)
How it was run: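 SOS1 degradation was assessed by densitometry of Western blots, relative to untreated controls, after 24 h compound exposure (0.03–3000 nM final, 37 °C, 5% CO2) of cells seeded at 5×10^5/well. Log concentration–response fitting gave DC50 and Dmax.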

| SMILES | IC50 (KRAS-G12C/SOS1) [nM] | DC50 (SOS1 protein) [nM] | Dmax (SOS1 protein) [%] |
| --- | --- | --- | --- |
| COc1cc2nc(C)nc(N[C@H](C)c3cc(-c4c(Cl)cccc4CN(C)C)cs3)c2cc1[C@H]1CC[C@H](C(=O)N2CCC(CCCCN3CCN(C(=O)c4ccc(Cl)c(N5CCC(=O)NC5=O)c4)CC3)CC2)CC1 [Example 56, 1-(2-chloro-5-(4-(4-(1-((1R,4R)-4-(4-(((R)-1-(4-(2-chloro-6-((dimethylamino)methyl)phenyl)thien-2-yl)ethyl)amino)-7-methoxy-2-methylquinazolin-6-yl)cyclohexane-1-carbonyl)piperidin-4-yl)butyl)piperazine-1-carbonyl)phenyl)dihydropyrimidine-2,4(1H,3H)-dione] | ≤ 15 | < 50 | 80 to 100 |
| COc1cc2nc(C)nc(N[C@H](C)c3cc(-c4c(Cl)cccc4CN(C)C)cs3)c2cc1[C@H]1CC[C@H](C(=O)N2CCC(CCOCC3CCN(C(=O)c4ccc(C(F)(F)F)c(N5CCC(=O)NC5=O)c4)CC3)CC2)CC1 [Example 57, 1-(5-(4-((2-(1-((1R,4R)-4-(4-(((R)-1-(4-(2-chloro-6-((dimethylamino)methyl)phenyl)thien-2-yl)ethyl)amino)-7-methoxy-2-methylquinazolin-6-yl)cyclohexane-1-carbonyl)piperidin-4-yl)ethoxy)methyl)piperidine-1-carbonyl)-2-(trifluoromethyl)phenyl)dihydropyrimidine-2,4(1H,3H)-dione] | ≤ 15 | < 50 | – |
| COc1ccc(C(=O)N2CCC3(CCC(CN4CCN(C(=O)[C@H]5CC[C@H](c6cc7c(N[C@H](C)c8cc(-c9c(Cl)cccc9CN(C)C)cs8)nc(C)nc7cc6OC)CC5)CC4)CC3)CC2)cc1N1CCC(=O)NC1=O [Example 59, 1-(5-(9-((4-((1R,4R)-4-(4-(((R)-1-(4-(2-chloro-6-((dimethylamino)methyl)phenyl)thien-2-yl)ethyl)amino)-7-methoxy-2-methylquinazolin-6-yl)cyclohexane-1-carbonyl)piperazin-1-yl)methyl)-3-azaspiro[5.5]undecane-3-carbonyl)-2-methoxyphenyl)dihydropyrimidine-2,4(1H,3H)-dione] | ≤ 15 | < 50 | 80 to 100 |
| COc1cc2nc(C)nc(N[C@H](C)c3cc(-c4c(Cl)cccc4CN(C)C)cs3)c2cc1[C@H]1CC[C@H](C(=O)N2CCN(CC3CCC4(CC3)CCN(C(=O)c3ccc(F)c(N5CCC(=O)NC5=O)c3)CC4)CC2)CC1 [Example 60, 1-(5-(9-((4-((1R,4R)-4-(4-(((R)-1-(4-(2-chloro-6-((dimethylamino)methyl)phenyl)thien-2-yl)ethyl)amino)-7-methoxy-2-methylquinazolin-6-yl)cyclohexane-1-carbonyl)piperazin-1-yl)methyl)-3-azaspiro[5.5]undecane-3-carbonyl)-2-fluorophenyl)dihydropyrimidine-2,4(1H,3H)-dione] | ≤ 15 | < 50 | 50 to 80 |
| COc1cc2nc(C)nc(N[C@H](C)c3cc(-c4c(Cl)cccc4CN(C)C)cs3)c2cc1[C@H]1CC[C@H](C(=O)N2CCC(OCCCC3CCN(C(=O)c4ccc(Cl)c(N5CCC(=O)NC5=O)c4)CC3)CC2)CC1 [Example 61, 1-(2-chloro-5-(4-(3-((1-((1R,4R)-4-(4-(((R)-1-(4-(2-chloro-6-((dimethylamino)methyl)phenyl)thien-2-yl)ethyl)amino)-7-methoxy-2-methylquinazolin-6-yl)cyclohexane-1-carbonyl)piperidin-4-yl)oxy)propyl)piperidine-1-carbonyl)phenyl)dihydropyrimidine-2,4(1H,3H)-dione] | ≤ 15 | 100 to 500 | 50 to 80 |
| COc1cc2nc(C)nc(N[C@H](C)c3cc(-c4c(Cl)cccc4CN(C)C)cs3)c2cc1[C@H]1CC[C@H](C(=O)N2CCN(CCC3CCC4(CC3)CCN(C(=O)c3ccc(Cl)c(N5CCC(=O)NC5=O)c3)CC4)CC2)CC1 [Example 62, 1-(2-chloro-5-(9-(2-(4-((1R,4R)-4-(4-(((R)-1-(4-(2-chloro-6-((dimethylamino)methyl)phenyl)thien-2-yl)ethyl)amino)-7-methoxy-2-methylquinazolin-6-yl)cyclohexane-1-carbonyl)piperazin-1-yl)ethyl)-3-azaspiro[5.5]undecane-3-carbonyl)phenyl)dihydropyrimidine-2,4(1H,3H)-dione] | ≤ 15 | < 50 | 80 to 100 |
| COc1cc2nc(C)nc(N[C@H](C)c3cc(N)cc(C(F)(F)F)c3)c2cc1C1=CCC(C(=O)N2CCC(CCOCC3CCN(C(=O)c4ccc(Cl)c(N5CCC(=O)NC5=O)c4)CC3)CC2)CC1 (stereo partly drawn) [Example 64, 1-(5-(4-((2-(1-(4-(4-(((R)-1-(3-amino-5-(trifluoromethyl)phenyl)ethyl)amino)-7-methoxy-2-methylquinazolin-6-yl)cyclohex-3-ene-1-carbonyl)piperidin-4-yl)ethoxy)methyl)piperidine-1-carbonyl)-2-chlorophenyl)dihydropyrimidine-2,4(1H,3H)-dione] | ≤ 15 | < 50 | 50 to 80 |
| COc1cc2nc(C)nc(N[C@H](C)c3cc(-c4c(Cl)cccc4CN(C)C)cs3)c2cc1[C@H]1CC[C@H](C(=O)N2CCC(COCC3CCN(C(=O)c4ccc(Cl)c(N5CCC(=O)NC5=O)c4)CC3)CC2)CC1 [Example 65, 1-(2-chloro-5-(4-(((1-((1R,4R)-4-(4-(((R)-1-(4-(2-chloro-6-((dimethylamino)methyl)phenyl)thien-2-yl)ethyl)amino)-7-methoxy-2-methylquinazolin-6-yl)cyclohexane-1-carbonyl)piperidin-4-yl)methoxy)methyl)piperidine-1-carbonyl)phenyl)dihydropyrimidine-2,4(1H,3H)-dione] | ≤ 15 | 1000 to 10000 | < 30 |
| COc1cc2nc(C)nc(N[C@H](C)c3cc(-c4c(Cl)cccc4CN(C)C)cs3)c2cc1[C@H]1CC[C@H](C(=O)N2CCN(CCOCC3CCN(C(=O)c4ccc(Cl)c(N5CCC(=O)NC5=O)c4)CC3)CC2)CC1 [Example 67, 1-(2-chloro-5-(4-((2-(4-((1R,4R)-4-(4-(((R)-1-(4-(2-chloro-6-((dimethylamino)methyl)phenyl)thien-2-yl)ethyl)amino)-7-methoxy-2-methylquinazolin-6-yl)cyclohexane-1-carbonyl)piperazin-1-yl)ethoxy)methyl)piperidine-1-carbonyl)phenyl)dihydropyrimidine-2,4(1H,3H)-dione] | ≤ 15 | < 50 | 80 to 100 |
